Here are results for 26 compounds from patent publication US7452885B2, “Amino-5-(6-membered)heteroarylimidazolone compounds and the use thereof for β-secretase modulation” (Wyeth, priority 2005, dated 2008).

Read-outs that look alike come from different tables or passages of the source.

One series concerns the target human BACE1 (Homo sapiens, UniProt P56817). The series is described as follows: Fluorescent kinetic assay, BACE-1 (Example 114). The series is classed as biochemical. Here is the method:
Evaluation of BACE-1 Binding Affinity of Test Compounds
Fluorescent Kinetic Assays
Dilution and mixing steps: total reaction volume: 100 μL
100 μM substrate dilution in 1×PBS was prepared, and
Fluorescence Readings: Readings at λex 320 nm and εem 420 nm are taken every 40 sec for 30 min at room temperature and the linear slope for substrate cleavage rate (vi) determined.

Where [1] appears, read: 10 nM human BACE1, 25 μM substrate WABC-6, 50 mM Na-Acetate pH 4.5, room temperature, read-out: BACE-1 (IC50 μM).

Sequence of human BACE1 (P56817 46-501): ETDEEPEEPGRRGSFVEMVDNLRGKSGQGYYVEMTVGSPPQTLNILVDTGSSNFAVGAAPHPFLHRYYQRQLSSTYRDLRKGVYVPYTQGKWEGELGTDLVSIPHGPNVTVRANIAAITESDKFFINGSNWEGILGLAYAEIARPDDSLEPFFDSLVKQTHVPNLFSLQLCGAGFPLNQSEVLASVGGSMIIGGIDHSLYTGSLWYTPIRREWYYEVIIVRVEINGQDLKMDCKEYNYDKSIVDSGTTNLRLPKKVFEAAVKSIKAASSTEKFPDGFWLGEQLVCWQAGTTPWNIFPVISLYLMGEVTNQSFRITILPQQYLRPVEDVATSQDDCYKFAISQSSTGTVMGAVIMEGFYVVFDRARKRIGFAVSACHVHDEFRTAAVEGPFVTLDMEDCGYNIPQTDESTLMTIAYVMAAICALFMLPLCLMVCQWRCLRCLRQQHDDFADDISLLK

`CN1C(=O)C(c2ccncc2)(c2cccc(-c3ccn(C)n3)c2)N=C1N` (stereo not shown) [Example 48] yielded a melting point of 199 to 201 °C. This compound had an IC50 against human BACE1 of 0.11 to 1 µM.
The like results for `CN1C(=O)C(c2ccncc2)(c2cccc(OCC3CC3)c2)N=C1N` (stereo not shown) [Example 71] were, in that order, 200 to 202 °C and 0.11 to 1 µM.
The like results for `Cc1cc(C2(c3cccc(-c4cc(F)ccc4F)c3)N=C(N)N(C)C2=O)ccn1` (stereo not shown) [Example 62] were, in that order, 161 to 163 °C and 0.01 to 0.1 µM.
`CN1C(=O)C(c2ccncc2)(c2cccc(-c3cc[nH]n3)c2)N=C1N` (stereo not shown) [Example 47] displayed a melting point of 148 to 150 °C. This compound gave an IC50 on human BACE1 of over 1 µM.
For `CN1C(=O)C(c2ccncc2)(c2cccc(-c3cccc(C(N)=O)c3)c2)N=C1N` (stereo not shown) [Example 37] the same measures were 188 to 190 °C and 0.11 to 1 µM.
Turning to `CCc1cc(C2(c3ccc(F)c(-c4cncc(F)c4)c3)N=C(N)N(C)C2=O)cc(CC)n1` (stereo not shown) [Example 104, 2-Amino-5-(2,6-diethyl-pyridin-4-yl)-5-[4-fluoro-3-(5-fluoropyridin-3-yl)-phenyl]-3-methyl-3,5-dihydro-imidazol-4-one], the melting point was 155 to 157 °C. In addition, at human BACE1 (setting [1]), the IC50 was in the range of 0.01 to 0.1 µM.
Take `CCc1cc(C2(c3cccc(-c4cccnc4)c3)N=C(N)N(C)C2=O)ccn1` (stereo not shown) [Example 63]: the melting point lay within 217 to 219 °C. On human BACE1, this compound had an IC50 of 0.01 to 0.1 µM.
For `COc1ncccc1-c1cccc(C2(c3ccncc3)N=C(N)N(C)C2=O)c1` (stereo not shown) [Example 49] the same measures were 243 to 245 °C and 0.11 to 1 µM.
In the case of `CC(=O)c1cccc(-c2cccc(C3(c4ccncc4)N=C(N)N(C)C3=O)c2)c1` (stereo not shown) [Example 38], the melting point lay in the range of 218 to 220 °C. In addition, the IC50 at human BACE1 was 0.11 to 1 µM.
`CN1C(=O)C(c2cccnc2)(c2cccc(-c3ccccc3)c2)N=C1N` (stereo not shown) [Example 27]: the melting point was in the range of 212 to 214 °C. Further, at human BACE1 (setting [1]), the IC50 was 0.11 to 1 µM.
For `CN1C(=O)C(c2ccc(OC(F)F)cc2)(c2cccnc2)N=C1N` (stereo not shown) [Example 111, 2-amino-5-[4-(difluoromethoxy)phenyl]-3-methyl-5-pyridin-3-yl-3,5-dihydro-4H-imidazol-4-one] the same measures were 173 to 175 °C and over 1 µM.
In turn, `COc1cncc(-c2cccc(C3(c4ccncc4)N=C(N)N(C)C3=O)c2)c1` (stereo not shown) [Example 33] registered a melting point of 198 to 200 °C. Further, the IC50 on human BACE1 fell in the range of 0.01 to 0.1 µM.
For `Cc1cc(C2(c3cccc(-c4cc(F)ccc4F)c3)N=C(N)N(C)C2=O)cc(C)n1` (stereo not shown) [Example 76] the same measures were 184 to 190 °C and 0.11 to 1 µM.
Consider `CN1C(=O)C(c2ccncc2)(c2cccc(-c3cccc(OC(F)(F)F)c3)c2)N=C1N` (stereo not shown) [Example 54], for which the melting point fell in the range of 208 to 210 °C. On human BACE1, this compound returned a 50% inhibitory concentration (IC50) of 0.11 to 1 µM.
For `Cc1cc(C2(c3cccc(-c4cnccn4)c3)N=C(N)N(C)C2=O)ccn1` (stereo not shown) [Example 66] the same measures were 138 to 141 °C and 0.01 to 0.1 µM.
For `CN1C(=O)C(c2ccncc2)(c2cccc(-c3cc(F)cnc3Cl)c2)N=C1N` (stereo not shown) [Example 42] the same measures were 120 to 122 °C and 0.11 to 1 µM.
For `Cc1cc(C2(c3cccc(-c4cccnc4)c3)N=C(N)N(C)C2=O)cc(C)n1` (stereo not shown) [Example 74] the same measures were 176 to 180 °C and 0.11 to 1 µM.
The compound `CN1C(=O)C(c2cccc(-c3cccnc3)c2)(c2ccnc(Cl)c2)N=C1N` (stereo not shown) [Example 89] had a melting point of 223 to 225 °C. In addition, the IC50 on human BACE1 (setting [1]) was 0.01 to 0.1 µM.
With `CCc1cc(C2(c3cccc(-c4cnccn4)c3)N=C(N)N(C)C2=O)ccn1` (stereo not shown) [Example 67], the melting point is 138 to 140 °C. At human BACE1, this compound registered an IC50 of 0.01 to 0.1 µM.
`CCc1cc(C2(c3cccc(-c4cc(F)ccc4F)c3)N=C(N)N(C)C2=O)cc(CC)n1` (stereo not shown) [Example 92]: the melting point lay within 107 to 112 °C. Moreover, on human BACE1 (setting [1]), the IC50 was 0.11 to 1 µM.
For the compound `CN1C(=O)C(c2ccncc2)(c2ccc(F)c(-c3cccnc3F)c2)N=C1N` (stereo not shown) [Example 59], the melting point fell in the range of 218 to 220 °C. Further, the IC50 against human BACE1 was 0.01 to 0.1 µM.
The like results for `COc1ccc(F)cc1-c1cccc(C2(c3ccncc3)N=C(N)N(C)C2=O)c1` (stereo not shown) [Example 39] were, in that order, 233 to 235 °C and 0.01 to 0.1 µM.
For `CCc1cc(C2(c3cccc(-c4cccnc4)c3)N=C(N)N(C)C2=O)cc(CC)n1` (stereo not shown) [Example 90], the melting point fell in the range of 152 to 157 °C. Further, the IC50 at human BACE1 (setting [1]) lay within 0.01 to 0.1 µM.
`CN1C(=O)C(c2ccncc2)(c2cccc(-c3cccc(C(F)(F)F)c3)c2)N=C1N` (stereo not shown) [Example 32] gave a melting point of 234 °C. At human BACE1, this compound registered an IC50 of 0.11 to 1 µM.
For `CN1C(=O)C(c2ccncc2)(c2cccc(-c3cccc(O)c3)c2)N=C1N` (stereo not shown) [Example 35] the same measures were 263 to 265 °C and 0.11 to 1 µM.
Take `CCc1cc(C2(c3cccc(-c4cccnc4)c3)N=C(N)N(C)C2=O)cc(C)n1` (stereo not shown) [Example 83]: the melting point lay within 135 to 139 °C. Further, the IC50 at human BACE1 (setting [1]) was in the range of 0.11 to 1 µM.
